Measurements from ChEMBL document CHEMBL4825684, “Design, synthesis and biological evaluation of N-anthraniloyl tryptamine derivatives as pleiotropic molecules for the therapy of malignant glioma” (Eur J Med Chem, 2021).
Calls of active or inactive are those of the source. No cut-off for these calls is given here.

Experiments:
[1] = biological target: T1, Prostaglandin G/H synthase 2 (Homo sapiens, UniProt P35354); experiment: Inhibition of human COX2 assessed as fluorescence by microplate reader
T1 sequence (P35354 whole entry): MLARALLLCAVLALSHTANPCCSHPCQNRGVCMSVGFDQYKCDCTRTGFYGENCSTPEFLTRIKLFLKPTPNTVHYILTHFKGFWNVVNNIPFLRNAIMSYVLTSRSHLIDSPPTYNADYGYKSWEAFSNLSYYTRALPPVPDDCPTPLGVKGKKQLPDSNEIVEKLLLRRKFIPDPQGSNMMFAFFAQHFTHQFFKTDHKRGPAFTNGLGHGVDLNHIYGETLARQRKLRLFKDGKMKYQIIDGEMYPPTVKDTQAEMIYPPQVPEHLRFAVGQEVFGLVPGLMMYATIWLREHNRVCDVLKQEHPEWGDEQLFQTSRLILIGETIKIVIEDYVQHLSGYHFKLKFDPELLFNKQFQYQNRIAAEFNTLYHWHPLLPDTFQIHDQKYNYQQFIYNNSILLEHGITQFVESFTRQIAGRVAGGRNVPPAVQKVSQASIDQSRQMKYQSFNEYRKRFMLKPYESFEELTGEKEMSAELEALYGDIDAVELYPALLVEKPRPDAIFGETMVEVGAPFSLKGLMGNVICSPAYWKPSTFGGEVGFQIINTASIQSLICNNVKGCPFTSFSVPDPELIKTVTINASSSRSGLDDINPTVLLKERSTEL

U-87 MG [2] = experiment: Antiproliferative activity against human U-87 MG cells assessed as colony formation ratio at 4 uM measured after 24 hrs by plate clone formation assay relative to control; type: functional, U-87MG ATCC
U-251 = experiment: Induction of apoptosis in human U-251 cells assessed as viable cells at 8 uM incubated for 48 hrs by […] double staining based flow cytometry assay (reference value: 96.6%); type: functional; conditions: read-out: Activity
U-87 MG [3] = experiment: Induction of apoptosis in human U-87 MG cells assessed as late apoptotic cells at 4 uM incubated for 48 hrs by […] double staining based flow cytometry assay (reference value: 0.61%); type: functional, U-87MG ATCC
U-87 MG [4] = experiment: Induction of apoptosis in human U-87 MG cells assessed as late apoptotic cells at 8 uM incubated for 48 hrs by […] double staining based flow cytometry assay (reference value: 0.61%); type: functional, U-87MG ATCC
C6 [5] = experiment: Antitumor activity against rat C6 cells inoculated orthotopic Sprague-Dawley rat model assessed as tumor growth inhibition at 50 mg/kg, ip twice a day treated 3 days after tumor cell injection measured for 13 days after tumor implantation; type: functional; conditions: 72 h, time 3 day, read-out: TGI
C6 [6] = experiment: Antitumor activity against rat C6 cells inoculated orthotopic Sprague-Dawley rat model assessed as increase in E-cadherin in tumor tissue at 50 mg/kg, ip twice a day treated 3 days after tumor cell injection measured for 13 days after tumor implantation by Western blot analysis; type: functional, organism-based; conditions: time 3.0 day
Rattus norvegicus = experiment: Anxiolytic activity in rat C6 cells inoculated orthotopic Sprague-Dawley rat model assessed as increase in time spent in central part at 50 mg/kg, ip twice a day administered for 13 days of tumor implantation by open field test relative to control; type: functional, organism-based; conditions: time 13.0 day

COc1cc(Nc2ccccc2C(=O)NCCc2c[nH]c3ccccc23)cc(OC)c1OC
IC50 [1]: 8.29 µM | Activity (U-87 MG [2]): 0% | viability at 8 µM (U-251): 56.6% | Activity (U-87 MG [3]): 3.78% | Activity (U-87 MG [4]): 7.44% | inhibition in vivo at 50 mg/kg (C6 [5]): 66% | Activity (C6 [6]): Active | Activity (Rattus norvegicus): Active
